Where “and” joins values, the source holds several entries; their conditions need not be identical. Equal values may be shown once. Read-outs that look alike come from different tables or passages of the source. Square brackets hold non-standard residues; d marks the D form. Peptide text beside a SMILES is read from it. * marks the point of attachment. NH(CH2)3O(2-CNpyrimidin5yl) = N#Cc1ncc(OCCCN*)cn1; 4Amb = NCc1ccc(C(=O)O)cc1; Pra = C#CC[CH](N)C(=O)O; SEt = CCS*
Key:
[1] = cited from earlier work; for 2nd order rate constant k: aromatic nitrile with L-cysteine, reported in Reference 13
[2] = tested on: β-galactosidase activity in 9L/LacZ cells
Procedure: FIG. 33 illustrates quantification of fluorescent intensity in the flow cytometry data in FIG. 3G.
Confocal Microscopy Imaging of 9L/LacZ Cell With B-SNAF2/4-BDP: Cells were incubated with B-SNAF2-BDP or B-SNAF4-BDP (2 μM) at 37° C. for 2 hours and then were then washed three times with cold PBS. The cells were fixed with 4% paraformaldehyde and stained with 2 μM Hoechst 33258 (Sigma) for 10 min. The cells were washed three times with PBS mounted with 2 μM Hoechst 33258 (Sigma) at 37° C. for 20 min. Cells were then fixed and imaged using a confocal laser scanning microscope (Zeiss LSM710; Zeiss America) with DAPI and DsRed filters. The images were processed using the ImageJ software package (National Institutes of Health).

[3] = Intramolecular cyclization kinetics (HPLC assay); type: physicochemical; conditions: PBS, pH 7.4, room temperature
Procedure: General Methods for Measuring Intramolecular Cyclization Kinetics: The 1st order rate constants of intramolecular cyclization of I-VI to produce cycl-I-VI, respectively were measured by HPLC assays adapted from the previously reported assay^38. To solutions of substrates I-VI in phosphate buffered saline (PBS) (1×, pH=7.4) were added a solution of TCEP (2.0 equiv.) in PBS (freshly prepared and the pH was adjusted to 7.4 by 1 N sodium hydroxide aqueous solution), affording a final concentration of 100 μM for the substrates. The mixture was kept at room temperature (23° C.) and monitored by HPLC at different time points. The concentration of remaining starting material was calculated using the peak integrals of the starting material at 254 nm. Based on first-order reaction law, In([At]/[A0]) was plotted against time and the slope of the linear regression result gives the first-order rate constant.

[4] = DLS of nanoaggregates of cyclized products; type: physicochemical; conditions: 10 μM, after raising pH from 4 to 7.4
Procedure: DLS Measurements: DLS measurements samples of I-VI were prepared by diluting fresh stock solutions of I-VI (20 mM in DMSO) to 10 μM solutions with HCl aqueous solution to adjust pH to 4. DLS measurements samples of cycl-I-VI were prepared by adding 0.5 μL of freshly prepared stock solutions of 1-VI (20 mM in DMSO), 6 μL saturated sodium bicarbonate solution into 993.5 μL H2O to adjust pH to 7.4.

[5] = Condensation kinetics of aromatic nitriles with L-cysteine (HPLC assay); type: physicochemical; conditions: for 2nd order rate constant k: aromatic nitrile with L-cysteine, PBS buffer, room temperature, HPLC assay; for second-order reaction rate: cyano-substituted aromatic with L-cysteine, phosphate-buffered saline (pH=7.4), FIG. 50A
Procedure: (§1) General Methods for Measuring Kinetics of Condensation Reactions Between Aromatic Nitriles and Aminothiols: The 2nd order rate constants for condensation reactions between aromatic nitriles and aminothiols were measured by using HPLC assays. To solutions of aromatic nitriles (100 μM) in phosphate buffered saline (PBS) (1×, pH=7.4) were added aminothiol (1.0 equiv.), TCEP (2.0 equiv.) and NaHCO3 (3 equiv.). The reaction solutions were kept at room temperature (23° C.) and monitored by HPLC at different time points. The conversion rates were calculated using the peak integrals of aromatic nitriles and the condensation products at 254 nm. Based on 2nd order reaction law, 1/[aromatic nitrile] was plotted against time and the slope of the linear regression result gives the 2nd order rate constant.

[6] = Condensation kinetics of aminothiols with CBT (HPLC assay); type: physicochemical; conditions: for 2nd order rate constant k: aminothiol with CBT, PBS buffer, room temperature, HPLC assay; for second-order reaction rate: substituted cysteine analogues with CBT, FIG. 50B
Procedure: as §1

[7] = tested on: MetAP2 activity in PC3 cells; assay: Imaging MetAP2 activity in PC3 cells (post click Cy5 labeling); type: cell-based, human; conditions: for Cy5 post-labeled fluorescence in cells: 24 h
Procedure: FIG. 45B illustrates fluorescence microscopy imaging of cy5 post-labeled M-SNAT (20 μM) with or without TNP470 and M-SNAT-ctrl (20 μM) in PC3 cells. Permealized cells were also stained with DAPI (blue).
Imaging MetAP2 activity in cancer cells: Cell uptake and MetAP2 specific activation of M-SNAT and M-SNAT-ctrl were evaluated in PC3 and DU145 cells with the MetAP2-specific inhibitor TNP-470. Post click fluorescent labeling was performed as illustrated in FIG. 45A to locate the nanoaggregation in cells and avoid the possible interference with probe uptake by pre-conjugating a large Cy5 fluorophore.

[8] = tested on: MetAP2 activity in DU145 cells; assay: Imaging MetAP2 activity in DU145 cells (post click Cy5 labeling); type: cell-based, human; conditions: for Cy5 post-labeled fluorescence in cells: DU145, 20 μM, 24 h
Procedure: Imaging MetAP2 activity in cancer cells: […] Post click fluorescent labeling was performed as illustrated in FIG. 45A to locate the nanoaggregation in cells and avoid the possible interference with probe uptake by pre-conjugating a large Cy5 fluorophore.

[9] = target: recombinant human MetAP2 (Homo sapiens, UniProt P50579); assay: Macrocyclization and nanoaggregation of M-SNAT with recombinant MetAP2; conditions: for macrocyclization (HPLC, mass spectrometry): TCEP
[10] = tested on: MetAP2 activity in 22Rv1 cells; assay: Imaging MetAP2 activity in 22Rv1 cells (post click Cy5 labeling); type: cell-based, human
[11] = tested on: PC3 tumors; assay: 18F-M-SNAT PET/CT imaging of PC3 xenograft mice; type: in vivo
Procedure: FIG. 47A illustrates images after 90 min programed PET/CT scan; n=4. About 150 μCi ^18F-M-SNAT were injected. White and gray indicate CT signal; a thresholding method was utilized to mask the relatively high uptake in liver, spleen, kideney and bladder.
PET/CT imaging of MetAP2 activity in tumor: Before applying fluorine-18 labeled M-SNAT (^18F-M-SNAT) for studies in vivo, the stability of non-radioactive ^19F-M-SNAT was investigated in mouse serum. The ability of ^18F-M-SNAT to indicate MetAP2 activity was assessed in male nude mice bearing subcutaneous PC3 tumors. When the tumors (right shoulder) were grown to 300-500 mm^3, PBS with or without TNP-470 were injected subcutaneously at 50 mg/kg at a remote position (lower left on the back) every other day for 4 days and then injected every day for 5 more days. The last injection was 4 h before imaging (FIG. 47A).
On the day of imaging, fluorine-18 was generated using a cyclotron and conjugated to M-SNAT in a rapid two-step chemical synthesis (FIG. 44). About 150 μCi (8.9 pmol)^18F-M-SNAT were injected to mice intravenously for a programed microPET/CT whole body scan through 90 min. […] About 1.3% was retained at 90 min. In comparison, the inhibitor-treated mice hold about 1% ID/cc through the whole scanning period (FIG. 47C). […] Tumors were resected 20 h after tracer injection for IHC staining ex vivo.

Sequence of recombinant human MetAP2 (P50579 whole entry): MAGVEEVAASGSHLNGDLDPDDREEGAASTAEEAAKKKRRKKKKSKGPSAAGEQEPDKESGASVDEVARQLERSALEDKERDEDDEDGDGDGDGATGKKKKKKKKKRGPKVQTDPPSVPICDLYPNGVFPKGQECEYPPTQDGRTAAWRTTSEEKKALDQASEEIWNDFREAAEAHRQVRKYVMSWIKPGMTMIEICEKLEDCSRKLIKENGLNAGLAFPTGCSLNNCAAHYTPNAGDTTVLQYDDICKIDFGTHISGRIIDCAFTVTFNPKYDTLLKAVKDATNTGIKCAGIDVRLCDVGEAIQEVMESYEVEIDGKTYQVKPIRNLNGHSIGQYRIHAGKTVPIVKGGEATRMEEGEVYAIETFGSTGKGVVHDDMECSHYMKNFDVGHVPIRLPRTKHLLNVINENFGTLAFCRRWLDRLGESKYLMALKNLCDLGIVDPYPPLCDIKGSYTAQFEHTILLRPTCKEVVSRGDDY

SMILES: Cc1csc(C#N)n1 [4-methyl-2-thiazolecarbonitrile]
- second-order reaction rate ([1]; with cysteine, Ye et al. (2011)): 0.7 M⁻¹ s⁻¹

SMILES: CCSSCC(NC(=O)OCc1ccc(OC2O[C@H](CO)[C@H](O)[C@H](O)C2O)cc1)C(=O)NCC(=O)NC(CCCCNC(=O)CCc1ccc2n1[B-](F)(F)[N+]1=C(C)C=C(C)C1=C2)C(=O)NCc1ccc(C(=O)NCCCOc2cnc(C#N)nc2)cc1 (stereo partly drawn) [B-SNAF4-BDP]
- retention of fluorescent signal, 9L/LacZ over 9L/Luc ([2]; 2 μM, 37° C., 2 hours): 2.5 fold
- retention of fluorescent signal, 9L/LacZ versus 9L/Luc ([2]; fluorescent imaging): significantly higher retention

SMILES: C#CCC(NC(=O)C(N)CS)C(=O)NCc1ccc(C(=O)NCCCOc2ccc3nc(C#N)ccc3c2)cc1 (stereo not drawn) [Compound II]
- 1st order rate constant of intramolecular cyclization [3]: 1.2×10^−3 s^−1 and 1.2±0.04×10^−3 s^−1
- diameter of nanoaggregates (DLS) [4]: 80 nm

SMILES: N#Cc1ccc2cc(OCCCNC(=O)c3ccc(CNC(=O)C(N)CS)cc3)ccc2n1 (stereo not drawn) [Compound I]
- diameter of nanoaggregates (DLS) [4]: 80 nm

SMILES: N#Cc1ccccn1 [Entry 3, 2-pyridinecarbonitrile]
- 2nd order rate constant k [1]: No Rxn^a
- 2nd order rate constant k ([1]; listed as 2-pyridinecarbonitrile): no reaction was observed

SMILES: N#Cc1ncc(Br)cn1 [Entry 4, 5-bromo-2-pyrimidinecarbonitrile]
- 2nd order rate constant k [5]: 2.21 ± 0.037 M⁻¹ s⁻¹
- 2nd order rate constant k ([5]; listed as 5-bromo-2-pyrimidinecarbonitrile): 2.21 M⁻¹ s⁻¹
- second-order reaction rate [5]: 0.58 M⁻¹ s⁻¹

SMILES: N#Cc1ncccn1 [Entry 5, 2-pyrimidinecarbonitrile]
- 2nd order rate constant k [5]: 0.99 ± 0.17 M⁻¹ s⁻¹
- 2nd order rate constant k ([5]; listed as 2-pyrimidinecarbonitrile): 0.99 M⁻¹ s⁻¹
- second-order reaction rate [5]: 0.17 M⁻¹ s⁻¹

SMILES: CC(C)(C)OC(=O)NCCCOc1cnc(C#N)nc1 [Entry 6]
- 2nd order rate constant k [5]: 0.01 ± 0.0017 M⁻¹ s⁻¹
- 2nd order rate constant k ([5]; listed as alkoxy-substituted 2-pyrimidinecarbonitrile): 0.01 M⁻¹ s⁻¹

SMILES: CC(C)(S)[C@@H](N)C(=O)O [Entry 7, D-penicillamine]
- 2nd order rate constant k [6]: 0.029 ± 0.003 M⁻¹ s⁻¹
- 2nd order rate constant k ([6]; listed as D-penicillamine): 0.029 M⁻¹ s⁻¹
- second-order reaction rate [6]: 0.06 M⁻¹ s⁻¹

SMILES: C[C@](N)(CS)C(=O)O [Entry 8, 2-methyl-L-cysteine]
- 2nd order rate constant k [6]: 5.35 ± 0.8 M⁻¹ s⁻¹
- 2nd order rate constant k ([6]; listed as 2-methyl-L-cysteine): 5.35 M⁻¹ s⁻¹
- second-order reaction rate [6]: 5.7 M⁻¹ s⁻¹

SMILES: C#CCC(NC(=O)CNC(=O)C(CSC)NC(=O)C(N)CCSC)C(=O)NCc1ccc(C(=O)NCCCOc2cnc(C#N)nc2)cc1 (stereo not drawn) [M-SNAT-ctrl] (H-MC(Me)G[Pra][4Amb]-{NH(CH2)3O(2-CNpyrimidin5yl)}; configuration not given here)
- Cy5 post-labeled fluorescence in cells ([7]; PC3, 20 μM): not
- Cy5 post-labeled fluorescence in cells [8]: not
- macrocyclization (HPLC, mass spectrometry) ([9]; 10 μM, MetAP2 7.5 μg/ml, 24 h): could not cyclize

SMILES: C#CCC(NC(=O)CNC(=O)C(CSSCC)NC(=O)C(N)CCSC)C(=O)NCc1ccc(C(=O)NCCCOc2cnc(C#N)nc2)cc1 (stereo not drawn) [M-SNAT] (H-MC(SEt)G[Pra][4Amb]-{NH(CH2)3O(2-CNpyrimidin5yl)}; configuration not given here)
- Cy5 post-labeled fluorescence in cells ([7]; MetAP2 knockdown PC3 cells): much weaker red fluorescence
- Cy5 post-labeled fluorescence in cells ([7]; PC3, 20 μM): red fluorescence was observed
- accumulation in cells ([8]; DU145): dose-dependent manner
- Cy5 post-labeled fluorescence in cells [8]: red fluorescence was observed
- Cy5 post-labeled fluorescence in cells ([10]; MetAP2 knockdown 22Rv1 cells, 24 h): much weaker red fluorescence
- average diameter of nanoparticles (DLS, TEM) ([9]; 10 μM, MetAP2 7.5 μg/ml, 24 h): 861 nm
- diameter range of nanoparticles ([9]; 10 μM, MetAP2 7.5 μg/ml, 24 h): 531-1281 nm
- macrocyclization (HPLC, mass spectrometry) ([9]; 10 μM, MetAP2 7.5 μg/ml, 24 h): converted into M-SNAT-cyclized
- average diameter of nanoparticles (DLS) ([9]; FIG. 44B): 861 nM
- diameter range of nanoparticles (DLS) ([9]; FIG. 44B): 531 to 1281 nM

SMILES: CO[C@@H]1[C@H](OC(=O)NC(=O)CCl)CC[C@]2(CO2)[C@H]1[C@@]1(C)O[C@@H]1CC=C(C)C [TNP-470, reference compound]
- effect on M-SNAT fluorescence ([7]; PC3, TNP-470 2 μM): significantly reduced
- inhibition of M-SNAT signal (flow cytometry) ([7]; PC3 cells treated, permealized and post-labeled): 22.7%
- effect on M-SNAT fluorescence ([10]; 22Rv1, TNP-470 2 μM): significantly reduced
- tumor growth versus PBS-treated group ([11]; 50 mg/kg s.c., PC3 tumors): no significant difference

SMILES: CCSSCC(NC(=O)C(N)CCSC)C(=O)NCC(=O)NC(Cc1cn(CCOCCOCCOCC[18F])nn1)C(=O)NCc1ccc(C(=O)NCCCOc2cnc(C#N)nc2)cc1 (stereo not drawn) [^18F-M-SNAT]
- tumor retention ([11]; PBS-treated PC3 tumors, at 90 min): About 1.3%
- tumor uptake ([11]; PBS-treated PC3 tumors, within 10 min): 1.6 % ID/cc
- clearance ([11]; PC3 xenograft mice, 90 min PET/CT): fast clearance by kidney to bladder
- tumor uptake ([11]; TNP-470 (inhibitor)-treated mice, whole scanning period): about 1 % ID/cc

SMILES: C#CCC1NC(=O)C2CSC(=N2)c2ccc3cc(ccc3n2)OCCCNC(=O)c2ccc(cc2)CNC1=O (stereo not drawn) [cycl-II]
- diameter of nanoaggregates (DLS) [4]: around 80 nm

SMILES: C#CCC1NC(=O)CNC(=O)C2CSC(=N2)c2ncc(cn2)OCCCNC(=O)c2ccc(cc2)CNC1=O (stereo not drawn) [cycl-IV]
- 1st order rate constant of intramolecular cyclization [3]: 2.1±0.07×10^−3 s^−1

SMILES: O=C1NCCCOc2ccc3nc(ccc3c2)C2=NC(CS2)C(=O)NCc2ccc1cc2 (stereo not drawn) [cycl-I]
- diameter of nanoaggregates (DLS) [4]: around 80 nm

SMILES: C#CCC1NC(=O)CNC(=O)C2(C)CSC(=N2)c2ncc(cn2)OCCCNC(=O)c2ccc(cc2)CNC1=O (stereo not drawn) [cycl-VI]
- 1st order rate constant of intramolecular cyclization [3]: 2.7±0.1×10^−3 s^−1

SMILES: C#CCC1NC(=O)CCNC(=O)C2CSC(=N2)c2ncc(cn2)OCCCNC(=O)c2ccc(cc2)CNC1=O (stereo not drawn) [cycl-V]
- 1st order rate constant of intramolecular cyclization [3]: 8.0±0.6×10^−4 s^−1
